Assay results from patent US6544750B1, “Peptide analogs as selective inhibitors of thrombin activation of protease activated receptor 1” (Thromgen, Inc., priority 1999, dated 2003).
Ends that are not written are not given here.

Columns and labels:
[1] = test system: Normal human lung fibroblasts (NHLF); assay: α-thrombin-induced calcium mobilization in fibroblasts (fura-2); format: cell-based; conditions: 0.2 mM peptide; for Ca2+ % Inhibition At 0.2 mM Peptide: thrombin-induced calcium mobilization in fibroblasts
Experimental: The second assay developed to assess peptides from the combinatorial libraries uses inhibition of α-thrombin-induced calcium mobilization in fibroblasts. Normal human lung fibroblasts (NHLF) were purchased from Clonetics, San Diego, Calif., an affiliate of Bio-Wittaker, Walkersville, Md. The cytoplasmic free Ca^2+ concentration ([Ca^2+]i) was measured using the fluorescent Ca^2+ indicator fura-2 (Molecular Probes, Inc., Eugene, Oreg.). Suspension of fibroblasts in Hepes-Tyrode's buffer were loaded with fura-2 by incubation at 37° C. with 2 μM fura-2/acetoxymethyl ester for 45 minutes according to the method of Rasmussen et al., J. Biol. Chem. 268, 14322 (1993). The labeled fibroblasts were separated from excess probe by washing by centrifugation at 1000 rpm (180×g). Aliquots of the labeled fibroblasts were transferred into a quartz cuvette with a magnetic stirrer, which was then placed in a thennostatically controlled chamber at 37° C. in a fluorescence spectrophotometer (Perkin-Elmer LS50B spectrofluorometer, Chicago, Ill.). Reagents, test peptide (SEQ ID NO: 5) (from 0.2 mM to effective lower concentration), and α-thrombin (2-4 nM), were sequentially added directly to the cuvette. The excitation wavelengths varied between 340 and 380 nm. Fluorescence was measured by recording emitted light at 510 nm as reported by Fisher et al., Mol Pharm. 35, 195 (1989). The minimum emission was determined on a solubilized fibroblast sample in the presence of 10 mM EDTA; maximum emission was determined on the same sample with 10 mM Ca^2+ added. The intrafibroblast free Ca^2+ concentration was calculated by the method of Grykiewicz et al., J. Biol. Chem. 260, 3440 (1985). The ratio of the fluorescence readings was calculated as R=340/380 nm and processed according to the equation [Ca^2+]i=KD((R−Rmim)/Rmax−R)) (Sf2/Sb2) to determine the intrafibroblast free Ca^2+ concentration. The KD for fura-2 was assumed to be 224 nM. Rmax and Rmin are the maximum and minimum fluorescence ratios measured at the end of the experiment, respectively; Sf2 and Sb2 are the fluorescence values at 380 nm in the absence and presence of saturating [Ca 2+], respectively. The reaction was monitored for 3-5 minutes. […] In FIG. 4, peptide RGDWC (SEQ ID NO: 20) at 0.2 mM inhibited 31% of 4 nM α-thrombin-induced Ca^2+ mobilization in fibroblasts.

[2] = test system: platelets (platelet-rich plasma); assay: γ-thrombin-induced platelet aggregation in platelet-rich plasma; format: cell-based, human; conditions: for Fold Increase in Aggregation Inhibition over RPPGF: RGDO4C sublibrary, γ-thrombin, compared to RPPGF at 0.2 mM
Experimental: Fresh whole blood was collected and mixed with 0.013 M sodium citrate and platelet-rich plasma was prepared according to the method of Meloni et al., J. Biol. Chem. 266, 6786 (1991). Platelet-rich plasma with a normalized platelet count between 2-2.5×10^8 platelets/ml was added to a cuvette of an aggregometer (Chronlog Corp., Havertown, Pa.), standardized using the protocol of Meloni et al., supra. Peptides to be examined were added to the cuvette and the mixture stabilized for a few moments. Once the baseline was stabilized, γ-thrombin (10-70 NM) (Haematologic Technologies, Essex Junction, Vt.) was added to determine the minimal concentration of the agonist necessary to achieve full platelet aggregation. All investigations with peptides were performed using threshold concentrations of γ-thrombin. Aggregation was allowed to proceed for 5 minutes before stopping. When ADP-induced platelet aggregation studies were performed, 1-5 μM ADP (Sigrna) was added to the cuvette containing platelet-rich plasma.

[3] = molecular target: biotin-NAT12 (NATLDPRSFLLR, peptide from PAR1) (Homo sapiens, UniProt P25116); assay: Biotin-NAT12 binding assay to peptides coupled to microtiter plates; conditions: relative to RPPGF given arbitrary binding level of 1
Experimental: A third assay was developed to ascertain the ability of biotin-NAT12 (NATLDPRSFLLR, SEQ ID NO: 41) to directly bind to peptides linked to microtiter plates. In this assay, peptide analogs were linked to microtiter plate cuvette wells by incubation of the peptide in 0.1 M Na2CO3, pH 9.6 buffer overnight at 4° C. After coupling the peptide to the cuvette well, the wells were dumped and each well was blocked with 1% bovine serun albumin in 0.01 M Na3PO4, 0.15 M NaCl, at pH 7.4. After incubation for 1 hour, the wells were dumped and washed three times with PBS-Tween. The wells were then incubated with biotin-NAT12. The amount of biotin-NAT12 bound was determined by adding streptavidin-peroxidase followed by adding turbo TMB (Pierce).
In decreasing order of binding level, these peptides include: RGKSC, RGKMC, RGKHC, RGKKC, RGKFC, RGKLC, RGKWC, and RGKVC (SEQ ID NOS 18, 7, 13, 14, 11, 1, 5 and 19, respectively). […] The best to least RGDO4C (SEQ ID NO: 44) peptides to bind biotin-NAT12 listed in Table VI are: RGDSC, RGDGC, RGDQC, RGDEC, RGDIC, RGDPC, RGDDC, and RGDYC (SEQ ID NOS 34, 28, 23, 22, 36, 38, 27 and 35, respectively). A solid phase peptide-peptide binding assay was used to determine biotin-NAT12 binding to library peptides. Test peptides in 0.1 M Na2CO3, pH 9.6 buffer, at 10 μg/well in 50 μl volume, were coupled to microtiter plate wells by overnight incubation at 4° C. After incubation, the contents of the wells were discarded and the wells were washed with a pH 7.4 buffer containing 0.01 M Na3PO4, 0.15 M NaCl, and 0.01% Tween 20. After blocking each well with 1% radioimmunoassay grade bovine serum albumin, the linked peptides were incubated with 100 μl of 100 μM biotin-NAT12 for 1 hour at 37° C. After incubation, the contents of the wells were dumped and the wells were washed three times (100 μl/well each time) with the buffer identified above. Each well then was incubated with 100 μl of 2 μg/ml solution of Immuno-Pure streptoavidin horeseradish peroxidase conjugate (Pierce Chemical Co., […], Ill.) for 1 hour at room temperature. The contents of the wells were discarded and the wells were washed three times as described above. The wells were then incubated with 100 μl of peroxidase-specific fast reacting substrate, turbo-3,3′,5,5′-tetramethylbenzidine (turbo-TMB, Pierce) for 5 minutes at room temperature and the developing color reaction was stopped by the addition of 100 μof 1 M phosphoric acid. The absorbance was measured at 450 nm using a Microplate Auto Reader EL311 (Bio-Tek, Winooski, Vt.).

Level of Binding to Biotin-NAT12 ([3]; RGDO4C sublibrary)	Level of Binding to Biotin-NAT12 ([3]; RGKO4C sublibrary)	Substance	Ca2+ % Inhibition At 0.2 mM Peptide ([1]; RGDO4C sublibrary) [%]	Fold Increase in Aggregation Inhibition over RPPGF [2] [fold]	Ca2+ % Inhibition At 0.2 mM Peptide ([1]; RGKO4C sublibrary) [%]	other results
0.374	–	Arg-Gly-Asp-Trp-Cys (RGDWC-NH2) [peptide of the H-R-G-D-O4-C-NH2 sublibrary]	31.9	31.7	–	effect on thrombin-induced Ca2+ mobilization (in words) ([1]; 4 nM α-thrombin): almost had no effect; inhibition of α-thrombin-induced Ca2+ mobilization ([1]; 4 nM α-thrombin, fibroblasts): 31%; concentration down to which peptide inhibited γ-thrombin-induced platelet aggregation ([2]; 70 nM γ-thrombin): ≥ 25 µM; peptide concentration at which γ-thrombin-induced platelet aggregation returned ([2]; 70 nM γ-thrombin): 6.25 µM; peptide concentration that abolished (completely inhibited) γ-thrombin-induced platelet aggregation ([2]; 70 nM γ-thrombin, platelet-rich plasma): 0.2 mM
1.28	–	RGDEC: peptide of the H-R-G-D-O4-C-NH2 sublibrary (H-RGDEC-NH2)	1.96	20	–	–
0.671	–	RGDFC: peptide of the H-R-G-D-O4-C-NH2 sublibrary (H-RGDFC-NH2)	30.3	25	–	–
0.87	–	RGDMC: peptide of the H-R-G-D-O4-C-NH2 sublibrary (H-RGDMC-NH2)	26.2	15	–	–
0.739	–	RGDNC: peptide of the H-R-G-D-O4-C-NH2 sublibrary (H-RGDNC-NH2)	44.3	5	–	–
1.12	–	RGDPC: peptide of the H-R-G-D-O4-C-NH2 sublibrary (H-RGDPC-NH2)	4.13	–	–	–
–	0.82	RGKDC: peptide of the H-R-G-K-O4-C-NH2 sublibrary (H-RGKDC-NH2)	–	–	26.7	–
–	0.926	RGKEC: peptide of the H-R-G-K-O4-C-NH2 sublibrary (H-RGKEC-NH2)	–	–	13.8	–
–	2.1	RGKHC: peptide of the H-R-G-K-O4-C-NH2 sublibrary (H-RGKHC-NH2)	–	–	31.2	–
–	1.8	RGKKC: peptide of the H-R-G-K-O4-C-NH2 sublibrary (H-RGKKC-NH2)	–	–	38.9	–
–	1.2	RGKPC: peptide of the H-R-G-K-O4-C-NH2 sublibrary (H-RGKPC-NH2)	–	–	31.13	–
–	2.2	RGKSC: peptide of the H-R-G-K-O4-C-NH2 sublibrary (H-RGKSC-NH2)	–	–	0.01	–

The remaining lines, values behind:

Substance	Level of Binding to Biotin-NAT12 ([3]; RGDO4C sublibrary)	Level of Binding to Biotin-NAT12 ([3]; RGKO4C sublibrary)	Ca2+ % Inhibition At 0.2 mM Peptide ([1]; RGDO4C sublibrary) [%]	Fold Increase in Aggregation Inhibition over RPPGF [2] [fold]	Ca2+ % Inhibition At 0.2 mM Peptide ([1]; RGKO4C sublibrary) [%]	other results
RGDAC: peptide of the H-R-G-D-O4-C-NH2 sublibrary (H-RGDAC-NH2)	0.8	–	11	–	–	–
RGDDC: peptide of the H-R-G-D-O4-C-NH2 sublibrary (H-RGDDC-NH2)	1.11	–	8.9	7.5	–	–
RGDGC: peptide of the H-R-G-D-O4-C-NH2 sublibrary (H-RGDGC-NH2)	1.39	–	9.9	7.5	–	–
RGDHC: peptide of the H-R-G-D-O4-C-NH2 sublibrary (H-RGDHC-NH2)	0.759	–	9.9	14.8	–	–
RGDIC: peptide of the H-R-G-D-O4-C-NH2 sublibrary (H-RGDIC-NH2)	1.22	–	9.3	3.8	–	–
RGDKC: peptide of the H-R-G-D-O4-C-NH2 sublibrary (H-RGDKC-NH2)	0.67	–	28.1	7.5	–	–
RGDLC: peptide of the H-R-G-D-O4-C-NH2 sublibrary (H-RGDLC-NH2)	0.98	–	0	7.5	–	–
RGDQC: peptide of the H-R-G-D-O4-C-NH2 sublibrary (H-RGDQC-NH2)	1.32	–	8.45	15.8	–	–
RGKAC: peptide of the H-R-G-K-O4-C-NH2 sublibrary (H-RGKAC-NH2)	–	0.689	–	–	5.2	–
RGKFC: peptide of the H-R-G-K-O4-C-NH2 sublibrary (H-RGKFC-NH2)	–	1.5	–	–	2.74	–
RGKGC: peptide of the H-R-G-K-O4-C-NH2 sublibrary (H-RGKGC-NH2)	–	1.0	–	–	12.4	–
RGKNC: peptide of the H-R-G-K-O4-C-NH2 sublibrary (H-RGKNC-NH2)	–	1.2	–	–	0	–
RGKQC: peptide of the H-R-G-K-O4-C-NH2 sublibrary (H-RGKQC-NH2)	–	0.374	–	–	28	–
RGKVC: peptide of the H-R-G-K-O4-C-NH2 sublibrary (H-RGKVC-NH2)	–	1.2	–	–	17.3	–
